“And” between values parts separate entries of the source, which are not always exact repeats. Equal entries are not always repeated.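 Five compound concentrations were applied to cells in 96-well plates for 48 hours; endpoints were derived by simple linear interpolation of the resulting dose-response curve. GI50 is the concentration that inhibits growth by half. TGI: total growth inhibition.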
Legend:
Assay in all cases: NCI anticancer screen, dose series, 48 h
[1] = system: UACC-62 melanoma
[2] = system: LOX IMVI melanoma
[3] = system: MCF7 breast
[4] = system: MDA-MB-435
[5] = system: SK-MEL-5 melanoma
[6] = system: A549 NSCLC
[7] = system: HT29 colon
[8] = system: OVCAR-8 ovarian
[9] = system: RPMI-8226 leukemia
[10] = system: ACHN renal

| Structure (SMILES) | GI50 [1] | TGI [1] | GI50 [2] | TGI [2] | GI50 [3] | TGI [3] | GI50 [4] | TGI [4] | GI50 [5] | TGI [5] | GI50 [6] | TGI [6] | GI50 [7] | TGI [7] | GI50 [8] | TGI [8] | GI50 [9] | TGI [9] | GI50 [10] | TGI [10] |
| --- | --- | --- | --- | --- | --- | --- | --- | --- | --- | --- | --- | --- | --- | --- | --- | --- | --- | --- | --- | --- |
| CCOC(=O)c1ccc(NC(=O)N2CC(C)OC(C)C2)cc1 (stereo not given) | > 100000 nM | > 100 µM | > 100000 nM | > 100 µM | > 100000 nM | > 100 µM | > 100000 nM | > 100 µM | > 100000 nM | > 100 µM | > 100 µM | > 100 µM | > 100000 nM | > 100 µM | > 100000 nM | > 100 µM | > 100000 nM | > 100 µM | > 100000 nM | > 100 µM |
| CNC(=O)c1cc(OC2CCC(NC(=O)Nc3ccc(Cl)c(C(F)(F)F)c3)CC2)ccn1 (stereo not given) | 5410 nM | 19.4 µM | 4960 nM | 22.2 µM | 3480 nM | 18.1 µM | 4160 nM | 24.8 µM | 3070 nM | 10.9 µM | 4.53 µM | 26.6 µM | 4250 nM | 16.2 µM | 7890 nM | 39.6 µM | 2860 nM | 14.8 µM | 7760 nM | 31.5 µM |
| COc1ccc(-c2nn3ncccc3c2-c2ccnc(Nc3ccc(Cl)c(C(F)(F)F)c3)n2)cc1 | 9360 nM | > 25 µM | 8950 nM | > 25 µM | 6530 nM | > 25 µM | 9690 nM | > 25 µM | 7160 nM | > 22 µM | 10.8 µM | > 25 µM | 9880 nM | > 25 µM | 8580 nM | > 25 µM | 8280 nM | > 25 µM | 10100 nM | > 25 µM |
| C=C1C(=O)O[C@H]2[C@H]1CC/C(COC(=O)c1cc3cc(F)ccc3[nH]1)=C\CC[C@@]1(C)O[C@@H]21 | 1890 nM | 3.79 µM | 1050 nM | 2.46 µM | 1020 nM | 3.75 µM | 1500 nM | 2.96 µM | 1850 nM | 3.84 µM | 3.08 µM | 8.73 µM | 1130 nM | 3.14 µM | 2170 nM | 6.67 µM | 2000 nM | 7.09 µM | 1460 nM | 2.94 µM |
| ClCc1cccc(Cn2cnc3c(Cl)ncnc32)c1 | 1820 nM | 3.4 µM | 1960 nM | 5.02 µM | 7800 nM | 77.7 µM | 1690 nM | 3.29 µM | 2300 nM | 6.38 µM | 19.4 µM | 39.4 µM | 3250 nM | > 100 µM | 22100 nM | 42 µM | 3820 nM | 16.1 µM | 2080 nM | 4.09 µM |
| CC(=O)Nc1ccc2c(c1)c(C1=C(c3cn(C)c4ccccc34)C(=O)NC1=O)cn2C | 1150 nM | > 25 µM | 1630 nM | > 25 µM | 852 nM | > 15.7 µM | 198 nM | > 25 µM | 1450 nM | > 25 µM | 1.65 µM | > 25 µM | 925 nM | > 25 µM | 2680 nM | > 25 µM | 1220 nM | > 22.1 µM | 1570 nM | > 25 µM |
| CNc1ccc2nc3ccc(=[N+](C)C)cc-3sc2c1 | 799 nM and 1100 nM | 2.86 µM and 3.6 µM | 443 nM and 368 nM | 4.47 µM and 2.15 µM | 801 nM and 284 nM | 6.84 µM and 3.62 µM | 547 nM and 785 nM | 2.33 µM and 2.85 µM | 212 nM and 263 nM | 0.99 µM and 0.875 µM | 0.417 µM and 0.338 µM | 12.1 µM and 5.21 µM | 2920 nM and 3060 nM | 12.2 µM and 12.5 µM | 298 nM and 278 nM | 1.79 µM and 1.55 µM | 287 nM and 800 nM | 14.6 µM and 28 µM | 815 nM and 1020 nM | 10.6 µM and 4.23 µM |
| N=C1C(c2nc(-c3ccc(Br)cc3)cs2)=C(O)CN1Cc1cccnc1 | 6920 nM | 30.6 µM | 12000 nM | 29.4 µM | 9760 nM | > 100 µM | 15500 nM | > 100 µM | 4350 nM | 32.5 µM | 26.6 µM | > 100 µM | 13400 nM | > 100 µM | 28800 nM | > 100 µM | 2880 nM | 76.5 µM | 16400 nM | 98.8 µM |
| COc1nc(N(C)O)nc(N(C)O)n1 | 2280 nM | 9.92 µM | 895 nM | > 100 µM | 2070 nM | > 100 µM | 3760 nM | > 100 µM | 1470 nM | 23.1 µM | 1.39 µM | > 100 µM | 1030 nM | > 100 µM | 2480 nM | > 100 µM | 1320 nM | > 100 µM | 625 nM | > 100 µM |
| COc1cccc(C2CC(C)(N3CCCC3)Oc3cc4c(cc32)OCO4)c1O (stereo not given) | – | > 90.1 µM | – | > 94.5 µM | – | > 91.2 µM | – | 18.4 µM | – | > 62.4 µM | – | > 100 µM | – | 45.3 µM | – | > 73.2 µM | – | > 81 µM | – | > 100 µM |
| C=C1CC2(OC1=O)C(=O)N(CCCCCCCN1C(=O)C3(CC(=C)C(=O)O3)c3ccccc31)c1ccccc12 (stereo not given) | 1270 nM | 4.82 µM | 763 nM | 1.54 µM | 1350 nM | 6.9 µM | 1290 nM | 3.92 µM | 7110 nM | 13.7 µM | 9.16 µM | 24.8 µM | 1490 nM | 5.4 µM | 1160 nM | 5.05 µM | 841 nM | 3.33 µM | 1130 nM | 3.07 µM |
| CCN(CC)CCOc1nc2ccc(OC)cc2c2c1-c1ccc(OC)cc1C2=O | 2760 nM | 7.65 µM | 513 nM | 1.88 µM | 367 nM | 1.53 µM | 690 nM | 2.09 µM | 1570 nM | 2.94 µM | 0.387 µM | 1.59 µM | 545 nM | 1.86 µM | 526 nM | 2.26 µM | 601 nM | 2.24 µM | 476 nM | 1.79 µM |

— PubChem BioAssay (NCI)
